From patent publication US10814006B2, “Fluorescent prodrugs” (UNIVERSITY OF IOWA RESEARCH FOUNDATION, priority 2015, dated 2020)
“Also recorded” adds a separate entry of the source. Like-named read-outs stand apart in the source and are kept apart here.

What was measured:
[1] = tested on: K562 cells; assay: Proliferation assay, K562 cells (CellQuantiBlue); type: cell-based; details: 72 hours; for IC50: K562 cells, QB assay
Method: (§1) K562 cells were cultured in fresh K562 media (RPMI-1640, 10% heat-inactivated Fetalclone III, 1× penicillin/streptomycin). Daudi and RPMI-8226 cells were cultured in fresh Daudi/RPMI media (RPMI-1640, 10% heat-inactivated FBS, 1× penicillin/streptomycin). Gamma delta T cells were cultured as described previously. Briefly, cells were expanded from peripheral blood mononuclear cells in fresh T cell media (RPMI-1640, 10% heat-inactivated FBS, 1× HEPES, pyruvate, non-essential amino acids, penicillin/streptomycin, beta-mercaptoethanol) and added to 6-well plates. Cells were stimulated with test compounds for three days at concentrations indicated in the text. Cells were washed twice then cultured for another eleven days after compound removal. Human interleukin 2 (5 ng/mL) was supplemented every three days. Experiments were performed at least three times independently using at least two different blood donors.
(§2) To assess K562 proliferation, 10000 cells/well were added to 96-well plates in 100 μL K562 media in the presence of test compounds. Similarly, experiments with Daudi cells were initiated at 5000 cells/well and RPMI8226 cells initiated at 6000 cells/well. The cell concentrations were determined by prior dose response experiments to maximize proliferation rates. Cells were allowed to proliferate for 72 hours. During the last 2 hours, cells were labeled with 10 μL of CellQuantiBlue reagent and scanned with a Victor plate reader.

[2] = tested on: RPMI-8226 cells; assay: Proliferation assay, RPMI-8226 cells (CellQuantiBlue); type: cell-based; details: 72 hours; for IC50: RPMI-8226 cells, QB assay
Method: as §1, §2

[3] = tested on: Daudi cells; assay: Proliferation assay, Daudi cells (CellQuantiBlue); type: cell-based; details: 72 hours; for IC50: Daudi cells, QB assay
Method: as §1, §2

[4] = tested on: Jurkat cells; assay: Proliferation assay, Jurkat cells (CellQuantiBlue); type: cell-based; details: 72 hours; for IC50: Jurkat cells, QB assay
Method: [Worded in the source for another cell line; this cell line is reported under the same test.] as §2

[5] = tested on: primary human gamma delta T cells (Vγ9Vδ2 T cells); details: cited from earlier work
[6] = pH dependence of fluorescence intensity; type: physicochemical; details: aqueous solutions, pH 6 vs pH 3
From the text: The use of the MOCCA prodrugs as probes with which to determine rates of biological deprotection (FIG. 4) was examined. All three compounds were readily detected by spectrophotometry with excitation maxima of 360 nm and emission maxima of 410 nm in aqueous solutions. Importantly, the fluorescence intensity of the free MOCCA group was strongly dependent upon pH of the solvent (FIG. 4A), correlating with the expected protonation of the carboxylic acid. At pH 6 the intensity of the free MOCCA group was less than 10% of its intensity at pH 3. At the same time, the fluorescence intensity of the MOCCA prodrugs was not pH dependent. Taken together, the MOCCA prodrugs would be expected to rapidly lose fluorescence intensity during metabolism at neutral pH, as the free MOCCA group is released from the prodrug and remains in the deprotonated form.

[7] = tested on: primary human gamma delta T cells (Vγ9Vδ2 T cells); assay: Gamma delta T cell expansion from PBMCs; type: cell-based; details: for EC50: 72 hours treatment; for gamma delta T cell agonist activity: PBMCs, CD3 and gamma delta TCR surface staining
Method: as §1
Total gamma delta TCR was labeled using FITC-anti-human Pan gamma delta TCR antibody and CD3 was labeled using PE-conjugated anti-human CD3 as described.
The MOCCA prodrugs were also evaluated in a functional assay of their ability to stimulate proliferation of primary human gamma delta T cells. Dose response experiments were performed with the experimental compounds—MOCCA-Me-C-HMBP and MOCCA-POM-C-HMBP. POM-Me-C-HMBP, POM2-C-HMBP, Me-C-HMBP, C-HMBP or HMBPP were used as positive controls. Unstimulated cells were used as a negative control. Cells were treated for 72 hours with test compounds, washed, then expanded for 11 additional days prior to quantification to assess proliferation.

[8] = Plasma metabolism by loss of fluorescence (spectrophotometry); type: in vitro ADME, human
Method: (§3) Compounds were exposed to PBS, K562 cells in PBS, or 50% pooled human plasma in PBS. K562 cells were used at a concentration of 1 million per mL. The fluorescence was detected using a Victor X5 plate reader with excitation at 355 nm and emissions at 405. Compounds were mixed with each biological matrix to a final concentration of 10 μM on ice. A baseline reading was measured. Compounds were incubated for one hour at 37° C. and subsequent readings were taken every 15 minutes.
This assay was then adapted to a 384-well-plate format for use in a plate reader equipped with a 355/40 nm excitation filter and a 405/10 nm emission filter. As expected, the fluorescence intensity of MOCCA-Me-C-HMBP in PBS was much higher than that of the free MOCCA group in PBS (FIG. 4B). Additionally, the fluorescence of the free MOCCA group was further reduced when incubated in human plasma (FIG. 4C). […] Therefore, the esterase-mediated hydrolysis of MOCCA-Me-C-HMBP could be readily assessed by quantification of the two-step (release followed by quenching) loss of fluorescence following exposure to various biological matrices.
(§4) The prodrugs and the MOCCA protecting group were stable in PBS (FIG. 5A). […] The half-life was determined to be 7 minutes in this assay. […] In order to confirm that the loss of fluorescence of MOCCA-Me-C-HMBP was indeed due to hydrolysis of the MOCCA-phosphonate ester, the end products were extracted and analyzed by thin layer chromatography. MOCCA-Me-C-HMBP was fully hydrolyzed to yield the free MOCCA group in the presence of human plasma within 40 minutes (FIG. 5D). Loss of the prodrug occurred at the same time as the appearance of the MOCCA free acid.

[9] = Plasma metabolism by thin layer chromatography; type: in vitro ADME; details: human plasma
Method: Compounds were exposed to cells, plasma, media, or PBS as indicated in the text in 100 μL volumes. Compounds were extracted from all biological mixtures using 200 μL of organic solvent containing 95% dichloromethane, 5% ethanol, and 0.25% glacial acetic acid. Extracts were separated by normal phase […] using 95% dichloromethane, 5% ethanol, and 0.25% glacial acetic acid as the mobile phase. Compounds were visualized under UV light.
as §4

[10] = tested on: K562 cells; assay: Quantification of cellular uptake in K562 cells; type: cell-based; details: K562 cells in PBS, 10 μM
Method: as §3
The compounds were then used to examine rates of internalization into K562 cells. […] That is, within hours, effectively all of the drug can pass through the cells.

[11] = Reference: Hsiao et al., read-out: EC50 for T cell expansion
[12] = dose response curves, read-out: EC50, gamma delta T cell proliferation

C/C(=C\CCP(=O)(O)O)CO [C-HMBP]
IC50 [1]: > 100 µM
IC50 [2]: > 100 µM
IC50 [3]: > 100 µM
IC50 [4]: > 100 µM
EC50 [5, 11]: 4 µM

COc1ccc2cc(C(=O)O)c(=O)oc2c1 [MOCCA (1), 7-Methoxy-2-oxo-2H-chromene-3-carboxylic acid]
cellular toxicity, K562 ([1]; concentrations up to 100 μM): no cellular toxicity
IC50 ([1]; Homo sapiens): > 100 µM
cellular toxicity, RPMI-8226 ([2]; concentrations up to 100 μM): no cellular toxicity
IC50 ([2]; Homo sapiens): > 100 µM
cellular toxicity, Daudi ([3]; concentrations up to 100 μM): no cellular toxicity
IC50 ([3]; Homo sapiens): > 100 µM
cellular toxicity, Jurkat ([4]; concentrations up to 100 μM): no cellular toxicity
IC50 ([4]; Homo sapiens): > 100 µM
fluorescence intensity at pH 6 relative to intensity at pH 3 [6]: less than 10%

COc1ccc2cc(C(=O)OCOP(=O)(CC/C=C(\C)CO)OC)c(=O)oc2c1 (stereo not drawn) [MOCCA-Me—C-HMBP (5)]
IC50 ([1]; Homo sapiens): > 100 µM
IC50 ([2]; Homo sapiens): 64 µM
IC50 ([3]; Homo sapiens): > 100 µM
IC50 ([4]; Homo sapiens): > 100 µM
EC50 ([7]; Homo sapiens, T-cell, 11 additional days expansion, Reference: none, read-out: EC50 for T cell expansion): 0.018 µM
EC50 ([7]; Homo sapiens, T-cell, dose response curves, read-out: EC50, gamma delta T cell proliferation): 0.018 µM
gamma delta T cell agonist activity [7]: functioned as a gamma delta T cell agonist; also recorded: potent gamma delta T cell agonist
increase in activity of the MOCCA protected compound over Me-C-HMBP ([7]; ratio of EC50 values): 1300 fold
order of decay kinetics in plasma ([8]; 50% human plasma in PBS, spectrophotometry): 2nd order kinetics
half-life at 10 μM ([8]; 50% pooled human plasma in PBS, 50% human plasma in PBS, spectrophotometry): 7 min
relative rate of plasma metabolism ([8]; human plasma): metabolized more rapidly relative to the bulkier MOCCA-POM-C-HMBP
time to full hydrolysis to the free MOCCA group [9]: ≤ 40 min
half-life ([9]; read-out: half-life of enzymatic release): 7.8 min
cellular uptake / cellular metabolism in K562 cells [10]: faster than that of MOCCA-POM-C-HMBP

COc1ccc2cc(C(=O)OCOP(=O)(CC/C=C(\C)CO)OCOC(=O)C(C)(C)C)c(=O)oc2c1 (stereo not drawn) [MOCCA-POM (9)]
IC50 [1]: > 100 µM
IC50 [2]: 43 µM
IC50 [3]: 56 µM
IC50 [4]: 53 µM
gamma delta T cell agonist activity [7]: functioned as a gamma delta T cell agonist
EC50 [7, 12]: 0.0039 µM

C1CN2CCN1CC2.COP(=O)(O)CC/C=C(\C)CO [Me—C-HMBP (4)]
IC50 [1]: > 100 µM
IC50 [2]: > 100 µM
IC50 [3]: > 100 µM
IC50 [4]: > 100 µM
EC50 [7, 12]: 23 µM

C/C(=C\CCP(=O)(OCOC(=O)C(C)(C)C)OCOC(=O)C(C)(C)C)CO [POM2-C-HMBP (7)]
IC50 [1]: > 100 µM
IC50 [2]: 44 µM
IC50 [3]: 58 µM
IC50 [4]: > 100 µM
EC50 ([5]; published value, unit inferred, read-out: published EC50 value, gamma delta T cell proliferation): 0.0054 µM

COP(=O)(CC/C=C(\C)CO)OCOC(=O)C(C)(C)C (stereo not drawn) [POM-Me—C-HMBP]
IC50 [1]: > 100 µM
IC50 [2]: > 100 µM
IC50 [3]: > 100 µM
IC50 [4]: > 100 µM
gamma delta T cell agonist activity [7]: not statistically different from that of POM-Me-C-HMBP
EC50 [5, 11]: 0.52 µM
EC50 ([5]; published value, Hsiao et al. 2014, read-out: published EC50, gamma delta T cell proliferation): 0.5 µM
